Measurements published in patent US20130210817A1, “METHODS OF CONTROLLING NEONICOTINOID RESISTANT APHIDS” (SYNGENTA CROP PROTECTION LLC, priority 2010, published 2013).

What was measured:
[1] = test system: neonicotinoid insecticide resistant aphid strain; format: in vivo; details: mixed age aphids on chinese cabbage leaf discs, Potter Tower spray, mortality 72 hours after treatment; resistant strain from peach orchard, Avignon region, 2009
Description: (§1) The following bioassay methodology was utilized to generate the data included in the table:
(§2) 5 cm leaf discs were taken from fully expanded chinese cabbage leaves and placed with the underside facing upwards onto water agar in 5 cm Petri dishes. The leaf discs are infested with between 30 and 40 mixed age aphids 24 hours prior to insecticide treatment. The leaf surface is sprayed with the appropriate test solutions in a Burkhard Potter Tower at an approximate water volume of 450 l/ha. Test containers are stored at 21 °C, 60% RH and 16:8 light/dark. Aphids were assessed for mortality 72 hours after treatment.

[2] = test system: neonicotinoid insecticide susceptible strain 4106A; format: in vivo; details: mixed age aphids on chinese cabbage leaf discs, Potter Tower spray, mortality 72 hours after treatment; susceptible strain 4106A (Rothamsted Research)
Description: as §1, §2

N#C/N=C1\SCCN1Cc1ccc(Cl)nc1 [thiacloprid]
LC50 with 95% confidence limit (ppm) resistant strain [1]: >1000 ppm | LC50 with 95% confidence limit (ppm) susceptible strain [2]: 0.38 (0.34-0.42) ppm

CCN(Cc1ccc(Cl)nc1)/C(=C/[N+](=O)[O-])NC [nitenpyram]
LC50 with 95% confidence limit (ppm) resistant strain [1]: 237 (93.7-3566) ppm | LC50 with 95% confidence limit (ppm) susceptible strain [2]: 1.26 (1.03-1.61) ppm

CN1COCN(Cc2cnc(Cl)s2)/C1=N\[N+](=O)[O-] [thiamethoxam]
LC50 with 95% confidence limit (ppm) resistant strain [1]: 148 (128-172) ppm | LC50 with 95% confidence limit (ppm) susceptible strain [2]: 0.35 (0.3-0.41) ppm

CN/C(=N\[N+](=O)[O-])NCc1cnc(Cl)s1 [clothianidin]
LC50 with 95% confidence limit (ppm) resistant strain [1]: 904 (478-3616) ppm | LC50 with 95% confidence limit (ppm) susceptible strain [2]: 0.33 (0.28-0.38) ppm

CC(=O)N1C(=O)N(NCc2cccnc2)Cc2cc(C(F)(C(F)(F)F)C(F)(F)F)ccc21 [pyrifluquinazon, 1-acetyl-1,2,3,4-tetrahydro-3-[(3-pyridylmethyl)amino]-6-[1,2,2,2-tetrafluoro-1-(trifluoromethyl)ethyl]quinazolin-2-one]
LC50 with 95% confidence limit (ppm) resistant strain [1]: 0.09 (0.06-0.13) ppm | LC50 with 95% confidence limit (ppm) susceptible strain [2]: 0.17 (0.13-0.22) ppm

CN/C(=N/CC1CCOC1)N[N+](=O)[O-] (centres unmarked) [dinotefuran]
LC50 with 95% confidence limit (ppm) resistant strain [1]: 538 (435-696) ppm | LC50 with 95% confidence limit (ppm) susceptible strain [2]: 9.95 (8.21-12.5) ppm

C/C(=N\C#N)N(C)Cc1ccc(Cl)nc1 [acetamiprid]
LC50 with 95% confidence limit (ppm) resistant strain [1]: 49.3 (35.2-72.0) ppm | LC50 with 95% confidence limit (ppm) susceptible strain [2]: 0.55 (0.51-0.59) ppm
